Measurements: US10286038B2, “Lysosome membrane protein 2 (LIMP-2) based peptides and related uses” (Northwestern University, priority 2016, dated 2019)
Where a chain is given by its changes, count along the chain named.

How the values were obtained:
[1] = tested on: α-synuclein in H4 cells stably overexpressing α-synuclein; settings: doxycycline, 74 hrs post incubation, compared to 3×D control peptide
Experimental: For Western blotting 20-40 μg of protein was loaded on a 10% Tris-SDS (made in house) or 4-12% Bis-Tris/NuPAGE Novex gel system (Thermo Fisher Scientific), subjected to electrophoresis, and blotted on nitrocellulose or PVDF membranes [2 h at 4° C. and 0.85 ampere (A) constant]. Membranes were blocked in 5% (wt/vol) milk Tris-buffered saline (TBS-T, pH 7.4, 0.1% Tween-20), and primary antibodies were incubated overnight (for more details on antibody dilutions see Table 4). PVDF membranes for α-synuclein detection were postfixed in 0.4% paraformaldehyde (PFA) (Polysciences Inc.) for 20 min after blotting. Signals were normalized to the respective loading controls [actin, neuronal-specific enolase (NSE), or GAPDH] […] Primary antibodies were incubated overnight at 4° C. After three washing steps in TBS-T the membranes were incubated for 1 h with the respective secondary antibody at room temperature. After the membrane was washed again three times with TBS-T, the signal of the antibody was detected using a chemiluminescence detection system (LAS4000; GE Healthcare Life Sciences) or by scanning on an infrared imager (Odyssey; LI-COR Biosciences).
The α-synuclein turn-over rate in the presence of the LIMP-2-derived peptides was assessed in human neuroglioma cells (H4), stably overexpressing α-synuclein. […]

[2] = target: T1, recombinant N370S mutant GC (Homo sapiens, UniProt P04062, N409S); test: peptide pulldown of recombinant N370S mutant GC; assay type: binding; settings: cell-free system
T1 sequence (P04062 40-536 N409S): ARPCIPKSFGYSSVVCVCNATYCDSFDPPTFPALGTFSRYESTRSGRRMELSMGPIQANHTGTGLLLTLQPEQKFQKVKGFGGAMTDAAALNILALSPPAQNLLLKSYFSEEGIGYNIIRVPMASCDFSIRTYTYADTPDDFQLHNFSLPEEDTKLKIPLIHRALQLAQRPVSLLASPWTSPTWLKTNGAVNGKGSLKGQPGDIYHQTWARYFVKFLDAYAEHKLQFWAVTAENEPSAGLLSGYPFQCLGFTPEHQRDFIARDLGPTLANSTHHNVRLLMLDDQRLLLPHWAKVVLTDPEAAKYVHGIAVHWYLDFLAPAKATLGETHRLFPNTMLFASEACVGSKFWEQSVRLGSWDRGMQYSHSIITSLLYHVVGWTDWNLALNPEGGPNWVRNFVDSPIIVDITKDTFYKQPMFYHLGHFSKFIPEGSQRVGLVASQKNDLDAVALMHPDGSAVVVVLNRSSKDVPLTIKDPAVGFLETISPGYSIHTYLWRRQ
Experimental: For the pulldown of recombinant protein utilizing LIMP-2-derived peptides, 2 nmol of protein (GC, LAMAN and BSA) was incubated overnight at 4° C. with the ten-fold molecular amount (20 nmol) of biotinylated LIMP-2-derived peptides (helix 5, 3×D as well as TAT-peptides (see Table 1)) at neutral pH. The total incubation volume was 250 μl (50 mM NaPhosphate buffer, 150 mM NaCl, pH7). ‘High Capacity Streptavidin Beads’ (Thermo Fisher Scientific, Waltham, USA) were blocked with 1% BSA solution and equilibrated with the NaPhosphate buffer. For each pulldown 50 μl of beads were utilized and incubated with 200 μl enzyme/peptide mixture for 30 min. at room temperature. The remaining 50 μl of the enzyme/peptide samples were prepared for SDS-PAGE (INPUT fraction). After incubation of the beads with the enzyme/peptide mixture the samples were centrifuged for 1 min. at 1,500×g at 4° C. The supernatant was removed and stored at 4° C. (UNBOUND fraction). Subsequently, the beads were washed three times with NaPhosphate buffer followed by centrifugation at 4,000 rpm at room temperature. […] The INPUT and BOUND fractions of the pulldown experiments were loaded on a NuPAGE® Novex® 4-12% Bis-Tris gels (Thermo Fisher Scientific, Waltham, USA), subjected to electrophoresis and stained with coomassie (Brilliant Blue, R-250; BioRad). After destaining the gels were scanned.

[3] = tested on: endogenous and overexpressed GC in cell lysates; settings: after incubation with peptide
Experimental: The artificial substrates were dissolved in sodium citrate buffer (0.2 M Na-citrate, 0.4% BSA, pH 4.6). All activity assays were performed at acid pH.
Cell lysate protein (20-200 μg) or recombinant protein (0.2 nmol GC/N370S or LAMAN) was incubated with 100 μL of 10 mM artificial absorbent substrate (4-nitrophenyl β-D-glucopyranoside or 4-nitrophenyl-N-acetyl-β-D-glucosaminide). The samples were incubated at 37° C. for 2 h to measure GC activity or for 5 h to assess LAMAN activity. The reaction was stopped by applying 500-1,000 μL of stop solution (0.4 M glycine, pH 10.4), and the absorbance was measured in a clear 96-well plate at 405 nm in a plate reader (Synergy HT; BioTek). Enzyme activities of cellular lysates were normalized to protein concentration (expressed in milliunits per milligram) and are shown relative to buffer control. Enzyme activities of recombinant proteins are shown as milliunits per milligram or are stated relative to buffer control.

[4] = target: T2, recombinant GC (Cerezyme) (Homo sapiens, UniProt P04062, R534H); test: peptide pulldown of recombinant GC; assay type: binding; settings: biotinylated peptide, tenfold molar amount, neutral pH, streptavidin beads
T2 construct: purchased Genzyme Therapeutics, Boston, USA
T2 sequence (P04062 40-536 R534H): T1 sequence (P04062 40-536 N409S) with S370N, R495H
Experimental: Expression plasmids of LIMP-2 and human GC constructs were generated as described previously (1). For Western blotting nitrocellulose or PVDF membranes were used. EndoH/PNGaseF digests were performed according to manufacturer's instructions (New England Biolabs, Ipswich, USA). For co-immunoprecipitation experiments magnetic agarose G beads (Thermo Fisher Scientific, Waltham, USA) were utilized. Immunofluorescence studies were performed in cells as previously described (1, 3). Cellular co-localization of two proteins was determined by the Pearson's Index (35). Enzyme activity assays of cell lysates or recombinant protein were measured at acid pH using absorbent and fluorescent artificial substrates. For peptide studies, peptides were N-terminally tagged with biotin. If not stated otherwise, recombinant enzyme was incubated with a tenfold higher molarity of peptides. Conditions for pulldown experiments were kept at neutral pH. Protein modelling, molecular analyses, graphics and animations were performed with the UCSF Chimera package.
All peptides were purchased from jpt Peptide Technologies (Berlin, GER). […] The concentration of the peptides as well as the recombinant proteins was determined spectroscopically (Nanodrop 2000c; Thermo Fisher Scientific, Waltham, USA). […]

| Substance | α-synuclein levels [1] | precipitation of recombinant N370S mutant GC [2] | enzymatic activity of endogenous and overexpressed GC in cell lysates [3] | co-precipitation of recombinant GC [4] |
| --- | --- | --- | --- | --- |
| Biotin-Ttds-KFERQLREIIEAMLKAYQQKLFVTHTVDEYGRKKRRQRRR [helix 5 TAT-peptide] | significant reduction | as efficiently as recombinant wild-type GC | – | – |
| Biotin-Ttds-LREIIEAMLKAYQQKLFVTHTVDE [helix 5 peptide] | – | – | could also be increased | specifically co-precipitated |
